In patent US12139492B2 (Endotarget Inc., priority 2021, dated 2024):
Like-named read-outs stand apart in the source and are kept apart here.

How the values were obtained:
[1] = target: BTK (Homo sapiens, UniProt Q06187); test: Degradation of BTK protein in Namalwa cells (Western blot; DC50, Dmax); conditions: for DC50: cell line not given
[2] = tested on: JeKo-1 cells; test: Antiproliferative effect, MTS cell viability assay, JeKo-1 cells; type: cell-based; conditions: Homo sapiens; JeKo-1 mantle cell lymphoma cells; read-out: IC50 (anti-proliferation) JeKO-1 cells
How it was run: (§1)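 Steps: seed B-cell lymphoma line; add compound at 0, 0.001, 0.01, 0.1, 1 or 10 μM; incubate 72 h; add MTS and read reduced tetrazolium (formazan) absorbance at 490 nm.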

[3] = tested on: Mino cells; test: Antiproliferative effect, MTS cell viability assay, Mino cells; type: cell-based; conditions: Homo sapiens, MINO, Mino mantle cell lymphoma cells; read-out: IC50 (anti-proliferation) Mino cells
How it was run: as §1

[4] = read-out: DC50 (BTK degradation), concentration giving 50% reduction of BTK expression level
[5] = read-out: Dmax (BTK degradation)

Chain of BTK (Q06187 whole entry): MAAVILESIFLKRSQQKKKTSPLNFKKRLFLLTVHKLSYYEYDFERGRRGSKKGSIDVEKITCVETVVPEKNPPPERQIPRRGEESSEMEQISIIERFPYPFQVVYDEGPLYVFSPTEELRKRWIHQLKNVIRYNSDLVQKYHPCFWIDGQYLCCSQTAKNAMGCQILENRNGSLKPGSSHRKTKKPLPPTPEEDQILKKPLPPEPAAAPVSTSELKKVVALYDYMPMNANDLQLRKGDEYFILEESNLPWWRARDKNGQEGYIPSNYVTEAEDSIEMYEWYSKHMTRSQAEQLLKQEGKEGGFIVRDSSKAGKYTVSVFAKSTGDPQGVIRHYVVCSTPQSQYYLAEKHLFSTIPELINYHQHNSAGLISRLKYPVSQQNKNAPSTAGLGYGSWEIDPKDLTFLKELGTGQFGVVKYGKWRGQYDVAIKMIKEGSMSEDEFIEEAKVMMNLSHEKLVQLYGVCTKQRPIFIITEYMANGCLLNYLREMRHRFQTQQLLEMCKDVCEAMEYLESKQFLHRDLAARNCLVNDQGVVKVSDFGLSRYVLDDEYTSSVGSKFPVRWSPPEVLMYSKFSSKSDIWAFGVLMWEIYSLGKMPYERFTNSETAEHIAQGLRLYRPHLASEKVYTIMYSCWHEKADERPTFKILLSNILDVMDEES

| Dmax [1] [%] | DC50 ([1]; BTK degradation) [nM] | DC50 [1, 4] [nM] | Dmax [1, 5] [%] | SMILES | IC50 [2] [nM] | IC50 [3] [nM] |
| --- | --- | --- | --- | --- | --- | --- |
|  |  | < 10 | > 90 | Nc1ncnc2c1c(-c1ccc(Oc3ccccc3)cc1)nn2C1CCN(CCN2CCN(CCCSc3ccc4c(c3)CN(C3CCC(=O)NC3=O)C4=O)CC2)CC1 (stereo not shown) [Compound 468] | 1000 to 10000 | 1000 to 10000 |
|  |  | < 10 | > 90 | Nc1ncnc2c1c(-c1ccc(Oc3ccccc3)cc1)nn2C1CCN(C(=O)C2CN(C3CCN(c4ccc5c(c4)CN(C4CCC(=O)NC4=O)C5=O)CC3)C2)CC1 (stereo not shown) [Compound 510, 3-(5-(4-(3-(4-(4-amino-3-(4-phenoxyphenyl)-1H-pyrazolo[3,4-d]pyrimidin-1-yl)piperidine-1-carbonyl)azetidin-1-yl)piperidin-1-yl)-1-oxoisoindolin-2-yl)piperidine-2,6-dione] | < 1000 | < 1000 |
|  |  | 10 to 50 | > 90 | Nc1ncnc2c1c(-c1ccc(Oc3ccccc3)cc1)nn2C1CCN(CCN2CC(N3CCN(c4ccc5c(c4)C(=O)N(C4CCC(=O)NC4=O)C5=O)CC3)C2)CC1 (stereo not shown) [Compound 463, 5-(4-(1-(2-(4-(4-amino-3-(4-phenoxyphenyl)-1H-pyrazolo[3,4-d]pyrimidin-1-yl)piperidin-1-yl)ethyl)azetidin-3-yl)piperazin-1-yl)-2-(2,6-dioxopiperidin-3-yl)isoindoline-1,3-dione] | < 1000 | < 1000 |
|  |  | 10 to 50 | > 90 | Nc1ncnc2c1c(-c1ccc(Oc3ccccc3)cc1)nn2C1CCN(C[C@@H]2CCN(CC3CCN(c4ccc5c(c4)CN(C4CCC(=O)NC4=O)C5=O)CC3)C2)CC1 (stereo partly drawn) [Compound 446b, 3-(5-(4-(((S)-3-((4-(4-amino-3-(4-phenoxyphenyl)-1H-pyrazolo[3,4-d]pyrimidin-1-yl)piperidin-1-yl)methyl)pyrrolidin-1-yl)methyl)piperidin-1-yl)-1-oxoisoindolin-2-yl)piperidine-2,6-dione] | 1000 to 10000 | < 1000 |
|  |  | 10 to 50 | > 75 | Nc1ncnc2c1c(-c1ccc(Oc3ccccc3)cc1)nn2C1CCN(C2CCN(CC3CCN(c4ccc5c(c4)CN(C4CCC(=O)NC4=O)C5=O)CC3)C2)CC1 (stereo not shown) [Compound 450, 3-(5-(4-((3-(4-(4-amino-3-(4-phenoxyphenyl)-1H-pyrazolo[3,4-d]pyrimidin-1-yl)piperidin-1-yl)pyrrolidin-1-yl)methyl)piperidin-1-yl)-1-oxoisoindolin-2-yl)piperidine-2,6-dione] | 1000 to 10000 | 1000 to 10000 |

Further lines, the compound ahead of its results:

| SMILES | Dmax [1] [%] | DC50 ([1]; BTK degradation) [nM] | DC50 [1, 4] [nM] | Dmax [1, 5] [%] | IC50 [2] [nM] | IC50 [3] [nM] |
| --- | --- | --- | --- | --- | --- | --- |
| NC(=O)c1c(-c2ccc(Oc3ccccc3)cc2)nn2c1NCC[C@H]2C1CCN(C2CCN(CCN3CCC(c4ccc5c(c4)CN(C4CCC(=O)NC4=O)C5=O)CC3)CC2)CC1 (stereo partly drawn) [Compound 328, (7S)-7-(1′-(2-(4-(2-(2,6-dioxopiperidin-3-yl)-1-oxoisoindolin-5-yl)piperidin-1-yl)ethyl)-[1,4′-bipiperidin]-4-yl)-2-(4-phenoxyphenyl)-4,5,6,7-tetrahydropyrazolo[1,5-a]pyrimidine-3-carboxamide] | > 75 | 10 to 50 |  |  | 1000 to 10000 | 1000 to 10000 |
| Nc1ncnc2c1c(-c1ccc(Oc3ccccc3)cc1)nn2[C@@H]1CCCN(CCNC(=O)NC2CCC(=O)NC2=O)C1 (stereo partly drawn) [Compound 519, 1-(2-((R)-3-(4-amino-3-(4-phenoxyphenyl)-1H-pyrazolo[3,4-d]pyrimidin-1-yl)piperidin-1-yl)ethyl)-3-(2,6-dioxopiperidin-3-yl)urea] |  |  | 10 to 50 | > 75 | 1000 to 10000 | > 10000 |
| Nc1ncnc2c1c(-c1ccc(Oc3ccccc3)cc1)nn2C1CCN(C2CCN(CCN3CCC(c4ccc(N5CCC(=O)NC5=O)cc4)CC3)C2)CC1 (stereo not shown) [Compound 574, 1-(4-(1-(2-(3-(4-(4-amino-3-(4-phenoxyphenyl)-1H-pyrazolo[3,4-d]pyrimidin-1-yl)piperidin-1-yl)pyrrolidin-1-yl)ethyl)piperidin-4-yl)phenyl)dihydropyrimidine-2,4(1H,3H)-dione] |  |  | 10 to 50 | > 90 | 1000 to 10000 | 1000 to 10000 |
| NC(=O)c1c(-c2ccc(Oc3ccccc3)cc2)nn2c1NCC[C@H]2C1CCN(CC2CCN(C(=O)N3CCC(CN4CCC(c5ccc6c(c5)CN(C5CCC(=O)NC5=O)C6=O)CC4)CC3)CC2)CC1 (stereo partly drawn) [Compound 416, (7S)-7-(1-((1-(4-((4-(2-(2,6-dioxopiperidin-3-yl)-1-oxoisoindolin-5-yl)piperidin-1-yl)methyl)piperidine-1-carbonyl)piperidin-4-yl)methyl)piperidin-4-yl)-2-(4-phenoxyphenyl)-4,5,6,7-tetrahydropyrazolo[1,5-a]pyrimidine-3-carboxamide] |  |  | 10 to 50 | > 75 | 1000 to 10000 | 1000 to 10000 |
| Nc1ncnc2c1c(-c1ccc(Oc3ccccc3)cc1)nn2[C@@H]1CCCN(C2CN(C(=O)N3CC(N4CCN(c5ccc6c(c5)C(=O)N(C5CCC(=O)NC5=O)C6=O)CC4)C3)C2)C1 (stereo partly drawn) [Compound 479, 5-(4-(1-(3-((R)-3-(4-amino-3-(4-phenoxyphenyl)-1H-pyrazolo[3,4-d]pyrimidin-1-yl)piperidin-1-yl)azetidin-1-carbonyl)azetidin-3-yl)piperazin-1-yl)-2-(2,6-dioxopiperidin-3-yl)isoindoline-1,3-dione] |  |  | < 10 | > 90 | 1000 to 10000 | 1000 to 10000 |
| NC(=O)c1c(-c2ccc(Oc3ccccc3)cc2)nn2c1NCCC2C1CCN(CC2CCN(C(=O)N3CCC(CN4CCN(c5ccc6c(c5)CN(C5CCC(=O)NC5=O)C6=O)CC4)CC3)CC2)CC1 (stereo not shown) [Compound 370, 7-(1-((1-(4-((4-(2-(2,6-dioxopiperidin-3-yl)-1-oxoisoindolin-5-yl)piperazin-1-yl)methyl)piperidine-1-carbonyl)piperidin-4-yl)methyl)piperidin-4-yl)-2-(4-phenoxyphenyl)-4,5,6,7-tetrahydropyrazolo[1,5-a]pyrimidine-3-carboxamide] | > 90 | < 10 |  |  | < 1000 | < 1000 |
| NC(=O)c1c(-c2ccc(Oc3ccccc3)cc2)nn2c1NCCC2C1CCN(C2CCN(C(=O)N3CCC(N4CCN(c5ccc6c(c5)C(=O)N(C5CCC(=O)NC5=O)C6=O)CC4)CC3)CC2)CC1 (stereo not shown) [Compound 341, 7-(1′-(4-(4-(2-(2,6-dioxopiperidin-3-yl)-1,3-dioxoisoindolin-5-yl)piperazin-1-yl)piperidine-1-carbonyl)-[1,4′-bipiperidin]-4-yl)-2-(4-phenoxyphenyl)-4,5,6,7-tetrahydropyrazolo[1,5-a]pyrimidine-3-carboxamide] | > 90 | 10 to 50 |  |  | < 1000 | 1000 to 10000 |
| Nc1ncnc2c1c(-c1ccc(Oc3ccccc3)cc1)nn2C1CCN([C@@H]2CCN(CC3CCN(c4ccc5c(c4)C(=O)N(C4CCC(=O)NC4=O)C5=O)CC3)C2)CC1 (stereo partly drawn) [Compound 449b, 5-(4-(((R)-3-(4-(4-amino-3-(4-phenoxyphenyl)-1H-pyrazolo[3,4-d]pyrimidin-1-yl)piperidin-1-yl)pyrrolidin-1-yl)methyl)piperidin-1-yl)-2-(2,6-dioxopiperidin-3-yl)isoindoline-1,3-dione] |  |  | < 10 | > 90 | < 1000 | < 1000 |
